{"source": "paper PMC5585256", "about": "(Scientific Reports, 2017)", "molecules": {"B1": {"name": "WT pBChE (protein, UniProt P06276 29-602, looked up)", "Cholinesterase": "EDDIIIATKNGKVRGMNLTVFGGTVTAFLGIPYAQPPLGRLRFKKPQSLTKWSDIWNATKYANSCCQNIDQSFPGFHGSEMWNPNTDLSEDCLYLNVWIPAPKPKNATVLIWIYGGGFQTGTSSLHVYDGKFLARVERVIVVSMNYRVGALGFLALPGNPEAPGNMGLFDQQLALQWVQKNIAAFGGNPKSVTLFGESAGAASVSLHLLSPGSHSLFTRAILQSGSFNAPWAVTSLYEARNRTLNLAKLTGCSRENETEIIKCLRNKDPQEILLNEAFVVPYGTPLSVNFGPTVDGDFLTDMPDILLELGQFKKTQILVGVNKDEGTAFLVYGAPGFSKDNNSIITRKEFQEGLKIFFPGVSEFGKESILFHYTDWVDDQRPENYREALGDVVGDYNFICPALEFTKKFSEWGNNAFFYYFEHRSSKLPWPEWMGVMHGYEIEFVFGLPLERRDNYTKAEEILSRSIVKRWANFAKYGNPNETQNNSTSWPVFKSTEQKYLTLNTESTRIMTKLRAQQCRFWTSFFPKVLEMTGNIDEAEWEWKAGFHRWNNYMMDWKNQFNDYTSKKESCVGL", "modifications": "plant-expressed"}}, "format_in_all_cases": "biochemical", "key": {"[1]": {"biological_target": "T1, WT hBChE (human plasma-derived butyrylcholinesterase) (Homo sapiens, UniProt P06276)", "T1 construct": "we first compared WT human plasma-derived (hBChE) to pBChE; from tissue; host or cells: human plasma", "experiment": "Inhibition of BTC hydrolysis activity of WT hBChE", "details": "for Fold increase in sensitivity relative to WT pBChE: WT hBChE vs WT pBChE", "procedure": "(§1) To this end, BTC hydrolysis was analyzed following a 30-minute incubation with the inhibitors.\n(§2) The four inhibitors were purchased from Sigma (St Louis, MO).\n(§3) Preparations of BChE and variants thereof were incubated in 96-well plate format with indicated concentrations of the inhibitors for 30 min at room temperature followed by activity measurements based on modified Ellman assay using 1 mM BTC as the substrate. IC50 values were determined by non-linear regression (GraphPad Prism) fit according to Equation (4)."}, "[2]": {"biological_target": "T2, pBChEV5 (F227A/S287G/A328W/Y332G) (Homo sapiens, UniProt P06276, A356W/F255A/S315G/Y360G)", "T2 construct": "hexahistidine (C); barley alpha-amylase signal peptide (N); made in house; host or cells: Nicotiana benthamiana (transient, MagnICON/TMV vector)", "T2 sequence (P06276 29-602 F255A/S315G/A356W/Y360G)": "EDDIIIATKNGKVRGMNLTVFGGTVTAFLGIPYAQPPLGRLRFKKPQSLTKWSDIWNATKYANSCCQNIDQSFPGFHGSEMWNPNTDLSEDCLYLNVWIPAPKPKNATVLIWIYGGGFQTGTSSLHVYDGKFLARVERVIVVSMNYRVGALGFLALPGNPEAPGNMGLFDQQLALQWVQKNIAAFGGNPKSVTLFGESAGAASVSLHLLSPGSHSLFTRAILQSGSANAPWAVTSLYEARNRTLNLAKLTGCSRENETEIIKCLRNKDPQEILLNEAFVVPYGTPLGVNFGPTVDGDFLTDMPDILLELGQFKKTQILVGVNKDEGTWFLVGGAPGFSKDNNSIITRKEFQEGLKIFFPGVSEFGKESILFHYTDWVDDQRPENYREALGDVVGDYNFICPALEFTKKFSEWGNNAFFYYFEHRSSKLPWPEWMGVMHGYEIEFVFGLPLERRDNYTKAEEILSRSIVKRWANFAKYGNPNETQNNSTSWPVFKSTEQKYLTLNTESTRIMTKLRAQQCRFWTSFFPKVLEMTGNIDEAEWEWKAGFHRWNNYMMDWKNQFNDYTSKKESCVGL", "experiment": "Inhibition of BTC hydrolysis activity of pBChEV5", "details": "for Fold increase in sensitivity relative to WT pBChE: pBChEV5 vs WT pBChE", "procedure": "as §1, §2, §3"}, "[3]": {"biological_target": "T3, pBChEV4 (A199S/F227A/S287G/A328W/Y332G) (Homo sapiens, UniProt P06276, A227S/A356W/F255A/S315G/Y360G)", "T3 construct": "hexahistidine (C); barley alpha-amylase signal peptide (N); made in house; host or cells: Nicotiana benthamiana (transient, MagnICON/TMV vector)", "T3 sequence (P06276 29-602 A227S/F255A/S315G/A356W/Y360G)": "as the sequence (P06276 29-602 F255A/S315G/A356W/Y360G) above, with A199S counted along it", "experiment": "Inhibition of BTC hydrolysis activity of pBChEV4", "details": "for Fold increase in sensitivity relative to WT pBChE: pBChEV4 vs WT pBChE", "procedure": "as §1, §2, §3"}, "[4]": {"biological_target": "T4, pBChEV2 (F227A/S287G/A328W/Y332A) (Homo sapiens, UniProt P06276, A356W/F255A/S315G/Y360A)", "T4 construct": "hexahistidine (C); barley alpha-amylase signal peptide (N); made in house; host or cells: Nicotiana benthamiana (transient, MagnICON/TMV vector)", "T4 sequence (P06276 29-602 F255A/S315G/A356W/Y360A)": "as the sequence (P06276 29-602 F255A/S315G/A356W/Y360G) above, with G332A counted along it", "experiment": "Inhibition of BTC hydrolysis activity of pBChEV2", "details": "for Fold increase in sensitivity relative to WT pBChE: pBChEV2 vs WT pBChE", "procedure": "as §1, §2, §3"}, "[5]": {"biological_target": "T5, WT pBChE (plant-derived human butyrylcholinesterase) (Homo sapiens, UniProt P06276)", "T5 construct": "barley alpha-amylase signal peptide (N); made in house; host or cells: Nicotiana benthamiana (transient, MagnICON/TMV vector, Agrobacterium infiltration)", "experiment": "Inhibition of BTC hydrolysis activity of WT pBChE", "details": "for Fold increase in sensitivity relative to WT pBChE: WT pBChE (reference)", "procedure": "as §1, §2, §3"}, "[6]": {"biological_target": "T6, pBChEV3 (A199S/S287G/A328W/Y332G) (Homo sapiens, UniProt P06276, A227S/A356W/S315G/Y360G)", "T6 construct": "hexahistidine (C); barley alpha-amylase signal peptide (N); made in house; host or cells: Nicotiana benthamiana (transient, MagnICON/TMV vector)", "T6 sequence (P06276 29-602 A227S/S315G/A356W/Y360G)": "as the sequence (P06276 29-602 F255A/S315G/A356W/Y360G) above, with A199S, A227F counted along it", "experiment": "Inhibition of BTC hydrolysis activity of pBChEV3", "details": "for Fold increase in sensitivity relative to WT pBChE: pBChEV3 vs WT pBChE", "procedure": "as §1, §2, §3"}, "pBChEV4": {"biological_target": "T7, pBChEV4 (Homo sapiens, UniProt P06276, A227S/A356W/F255A/S315G/Y360G)", "T7 construct": "hexahistidine (C); barley alpha-amylase signal peptide (N); made in house; host or cells: Nicotiana benthamiana (transient, MagnICON/TMV vector)", "T7 sequence (P06276 29-602 A227S/F255A/S315G/A356W/Y360G)": "as the sequence (P06276 29-602 F255A/S315G/A356W/Y360G) above, with A199S counted along it", "experiment": "Inhibition rate constant for paraoxon, pBChEV4", "details": "enzyme pBChEV4"}, "WT pBChE": {"biological_target": "T8, WT pBChE (Homo sapiens, UniProt P06276)", "T8 construct": "barley alpha-amylase signal peptide (N); made in house; host or cells: Nicotiana benthamiana (transient, MagnICON/TMV vector, Agrobacterium infiltration)", "experiment": "Inhibition rate constant for paraoxon, WT pBChE", "details": "enzyme WT pBChE"}, "[7]": {"experiment": "Radiometric (−)-cocaine hydrolysis assay", "details": "substrate (−)-cocaine"}}, "note": "Marks after values point to notes of the source that are not given here.", "data": [{"molecule": "CN(C)C(=O)Oc1cccc([N+](C)(C)C)c1", "note": "[Neostigmine, [3-(dimethylcarbamoyloxy)phenyl]-trimethylazanium;bromide]", "values": [{"measurement": "IC50", "setting": "[1]", "value": 162, "unit": "nM"}, {"measurement": "Fold increase in sensitivity relative to WT pBChE", "setting": "[1]", "value": "(1)^**** fold"}, {"measurement": "IC50", "setting": "[2]", "value": 13.2, "unit": "nM"}, {"measurement": "Fold increase in sensitivity relative to WT pBChE", "setting": "[2]", "value": "(17)^**** fold"}, {"measurement": "Fold increase in sensitivity relative to WT pBChE", "setting": "[2]; listed as neostigmine", "value": "10–20 fold"}, {"measurement": "IC50", "setting": "[3]", "value": 155, "unit": "nM"}, {"measurement": "Fold increase in sensitivity relative to WT pBChE", "setting": "[3]", "value": "(1)^**** fold"}, {"measurement": "Fold increase in sensitivity relative to WT pBChE", "setting": "[3]; listed as neostigmine", "value": "near WT levels"}, {"measurement": "IC50", "setting": "[4]", "value": 17.8, "unit": "nM"}, {"measurement": "Fold increase in sensitivity relative to WT pBChE", "setting": "[4]", "value": "(13)^**** fold"}, {"measurement": "Fold increase in sensitivity relative to WT pBChE", "setting": "[4]; listed as neostigmine", "value": "10–20 fold"}, {"measurement": "IC50", "setting": "[5]", "value": 229, "unit": "nM"}, {"measurement": "Fold increase in sensitivity relative to WT pBChE", "setting": "[5]", "value": "(1) fold"}, {"measurement": "IC50", "setting": "[6]", "value": 204, "unit": "nM"}, {"measurement": "Fold increase in sensitivity relative to WT pBChE", "setting": "[6]", "value": "(1) fold"}, {"measurement": "Fold increase in sensitivity relative to WT pBChE", "setting": "[6]; listed as neostigmine", "value": "near WT levels"}]}, {"molecule": "CCOP(=O)(OCC)Oc1ccc([N+](=O)[O-])cc1", "note": "[Paraoxon, diethyl (4-nitrophenyl) phosphate]", "values": [{"measurement": "Fold increase in sensitivity relative to WT pBChE", "setting": "[1]", "value": "(0.9) fold"}, {"measurement": "Fold increase in sensitivity relative to WT pBChE", "setting": "[2]", "value": "(46)^**** fold"}, {"measurement": "Fold increase in sensitivity relative to WT pBChE", "setting": "[2]; listed as paraoxon", "value": "40–50 fold"}, {"measurement": "Fold increase in sensitivity relative to WT pBChE", "setting": "[3]", "value": "(6)^**** fold"}, {"measurement": "Fold increase in sensitivity relative to WT pBChE", "setting": "[3]; listed as paraoxon", "value": "3–7 fold"}, {"measurement": "Fold increase in sensitivity relative to WT pBChE", "setting": "[4]", "value": "(38)^**** fold"}, {"measurement": "Fold increase in sensitivity relative to WT pBChE", "setting": "[4]; listed as paraoxon", "value": "40–50 fold"}, {"measurement": "inhibition rate constant (ki)", "setting": "pBChEV4", "value": 283000, "unit": "M⁻¹ s⁻¹"}, {"measurement": "inhibition rate constant (ki)", "setting": "WT pBChE", "value": 52300, "unit": "M⁻¹ s⁻¹"}, {"measurement": "Fold increase in sensitivity relative to WT pBChE", "setting": "[5]", "value": "(1) fold"}, {"measurement": "Fold increase in sensitivity relative to WT pBChE", "setting": "[6]", "value": "(3)^**** fold"}, {"measurement": "Fold increase in sensitivity relative to WT pBChE", "setting": "[6]; listed as paraoxon", "value": "3–7 fold"}]}, {"molecule": "B1", "values": [{"measurement": "k cat", "setting": "[7]", "value": 0.0433, "unit": "s⁻¹"}]}]}
